target: T1, Glutathione-S-transferase-labeled FXR human protein (Homo sapiens, UniProt Q96RI1); assay: FXR biochemical experiment (AlphaScreen, coactivator recruitment); details: AlphaScreen, GST-FXR human protein + biotin-labeled steroid receptor coactivator; read-out: FXR enzyme activity EC50
T1 construct: purchased Invitrogen
T1 sequence (Q96RI1 1-486): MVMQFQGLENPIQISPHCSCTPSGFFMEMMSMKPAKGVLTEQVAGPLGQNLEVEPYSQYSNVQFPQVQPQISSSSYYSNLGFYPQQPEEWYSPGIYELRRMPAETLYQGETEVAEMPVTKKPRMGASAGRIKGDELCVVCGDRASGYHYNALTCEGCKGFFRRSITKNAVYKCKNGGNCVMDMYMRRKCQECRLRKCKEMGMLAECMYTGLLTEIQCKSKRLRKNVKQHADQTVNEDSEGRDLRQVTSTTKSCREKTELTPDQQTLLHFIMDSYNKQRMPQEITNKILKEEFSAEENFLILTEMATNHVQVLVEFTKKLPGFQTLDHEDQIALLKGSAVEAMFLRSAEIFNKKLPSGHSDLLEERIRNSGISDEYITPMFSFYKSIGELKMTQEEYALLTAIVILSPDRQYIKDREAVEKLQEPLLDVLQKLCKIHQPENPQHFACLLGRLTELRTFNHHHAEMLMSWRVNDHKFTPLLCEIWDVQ
Experimental: FXR Biochemical Experiment Experimental Purpose: The activation effect of the compound on FXR binding reaction was detected by AlphaScreen. […] Protein: Glutathione-S-transferase-labeled FXR human protein (Invitrogen) 2. Co-activator: Biotin-labeled steroid receptor coactivator (Anaspec) 3. […] Compound Dilution: The compound to be tested was prepared as a 40 μM DMSO solution, and then diluted 3-fold to 10 concentration points. The reference compound was prepared as a 400 μM DMSO solution, and then diluted 1.5-fold to 10 concentration points. The diluted DMSO solution was added to the wells of a 384-well plate in a volume of 150 nL per well. 2. […] 4. […] The operation during the experimental process was protected from light. The incubation was performed for 1 hour at room temperature. 5. […] The operation during the experimental process was protected from light. The incubation was performed for 1 hour at room temperature. 6. EC50 test: Envision was used with excitation at 680 nm to read the […] signals at 520-620 nm. 7. Analytical data: The data were analyzed via using Prism 5.0, and the EC50 values of the activation effects of the compounds were calculated.

Structure (SMILES)	EC50 [nM]
CC[C@H]1[C@@H](O)[C@@H]2[C@H](CC[C@]3(C)[C@@H]([C@H](C)CCOc4cccc(C(=O)O)c4)CC[C@@H]23)[C@@]2(C)CC[C@@H](O)C[C@@H]12 [Example 7]	30
CC[C@H]1[C@@H](O)[C@@H]2[C@H](CC[C@]3(C)[C@@H]([C@H](C)CCOc4cc(C(=O)O)ccn4)CC[C@@H]23)[C@@]2(C)CC[C@@H](O)C[C@@H]12 [Example 9]	160
CC[C@H]1[C@@H](O)[C@@H]2[C@H](CC[C@]3(C)[C@@H]([C@H](C)CCOc4ccc(C(=O)O)nc4)CC[C@@H]23)[C@@]2(C)CC[C@@H](O)C[C@@H]12 [Example 10]	60
CC[C@H]1[C@@H](O)[C@@H]2[C@H](CC[C@]3(C)[C@@H]([C@H](C)CCCn4cc(C(=O)O)ccc4=O)CC[C@@H]23)[C@@]2(C)CC[C@@H](O)C[C@@H]12 [Example 17]	600
CC[C@H]1[C@@H](O)[C@@H]2[C@H](CC[C@]3(C)[C@@H]([C@H](C)CCc4cccc(C(=O)O)c4)CC[C@@H]23)[C@@]2(C)CC[C@@H](O)C[C@@H]12 [Example 19]	150

same assay, conditions: ratio of highest signal of the compound to that of the reference compound; read-out: FXR enzyme activity Efficacy

Structure (SMILES)	Emax [%]
CC[C@H]1[C@@H](O)[C@@H]2[C@H](CC[C@]3(C)[C@@H]([C@H](C)CCOc4cccc(C(=O)O)c4)CC[C@@H]23)[C@@]2(C)CC[C@@H](O)C[C@@H]12 [Example 7]	360
CC[C@H]1[C@@H](O)[C@@H]2[C@H](CC[C@]3(C)[C@@H]([C@H](C)CCOc4cc(C(=O)O)ccn4)CC[C@@H]23)[C@@]2(C)CC[C@@H](O)C[C@@H]12 [Example 9]	407
CC[C@H]1[C@@H](O)[C@@H]2[C@H](CC[C@]3(C)[C@@H]([C@H](C)CCOc4ccc(C(=O)O)nc4)CC[C@@H]23)[C@@]2(C)CC[C@@H](O)C[C@@H]12 [Example 10]	188
CC[C@H]1[C@@H](O)[C@@H]2[C@H](CC[C@]3(C)[C@@H]([C@H](C)CCCn4cc(C(=O)O)ccc4=O)CC[C@@H]23)[C@@]2(C)CC[C@@H](O)C[C@@H]12 [Example 17]	313
CC[C@H]1[C@@H](O)[C@@H]2[C@H](CC[C@]3(C)[C@@H]([C@H](C)CCc4cccc(C(=O)O)c4)CC[C@@H]23)[C@@]2(C)CC[C@@H](O)C[C@@H]12 [Example 19]	251

target: T2, FXR (FXR HEK 293T DA cell line) (Homo sapiens, UniProt Q96RI1); assay: FXR cell experiment (β-lactamase reporter gene, GeneBLAzer); type: cell-based; details: FXR HEK 293T DA cells, β-lactamase reporter, 16 hours;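 as to FXR cell activity Efficacy: Emax relative to maximal signal of reference agonist chenodeoxycholic acid (CDCA)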
T2 construct: expressed in transfected cells; host or cells: HEK 293T (FXR HEK 293T DA)
T2 sequence (Q96RI1 with tags, fused parts or gaps limits assumed): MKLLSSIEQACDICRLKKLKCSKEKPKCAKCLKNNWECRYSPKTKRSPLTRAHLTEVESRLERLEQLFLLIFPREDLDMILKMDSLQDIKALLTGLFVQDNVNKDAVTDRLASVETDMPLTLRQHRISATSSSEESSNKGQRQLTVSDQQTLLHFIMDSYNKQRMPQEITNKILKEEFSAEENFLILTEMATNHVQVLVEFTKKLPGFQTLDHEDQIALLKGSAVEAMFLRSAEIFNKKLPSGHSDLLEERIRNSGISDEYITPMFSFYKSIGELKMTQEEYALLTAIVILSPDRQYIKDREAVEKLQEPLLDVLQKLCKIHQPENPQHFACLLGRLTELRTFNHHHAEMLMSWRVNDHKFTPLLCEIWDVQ
Experimental: Compound Dilution: The compound to be tested was prepared as a 100 μM DMSO solution, and then the compound was diluted 3-fold to 10 concentration points. The reference compound was prepared as a 100 μM DMSO solution, and then diluted 1.3-fold to 10 concentration points. The diluted DMSO solution was added to the wells of a 384-well plate in a volume of 200 nL per well. 2. […] The 384-well microplate was incubated at 37° C., 5% CO2 for 16 hours. 4. 6 μL of 1 mM LiveBLAzer™-FRET B/G (CCF4-AM) substrate was mixed with 60 μL of B solution and 934 μL of C solution, and added to the wells of the 384-well plate in a volume of 8 μL per well. […] The 384-well microplate was incubated in dark for 2 hours at room temperature. 6. […] 7.

Structure (SMILES)	EC50 [nM]
CC[C@H]1[C@@H](O)[C@@H]2[C@H](CC[C@]3(C)[C@@H]([C@H](C)CCOc4cccc(C(=O)O)c4)CC[C@@H]23)[C@@]2(C)CC[C@@H](O)C[C@@H]12 [Example 7]	60
CC[C@H]1[C@@H](O)[C@@H]2[C@H](CC[C@]3(C)[C@@H]([C@H](C)CCOc4cc(C(=O)O)ccn4)CC[C@@H]23)[C@@]2(C)CC[C@@H](O)C[C@@H]12 [Example 9]	140
CC[C@H]1[C@@H](O)[C@@H]2[C@H](CC[C@]3(C)[C@@H]([C@H](C)CCOc4ccc(C(=O)O)nc4)CC[C@@H]23)[C@@]2(C)CC[C@@H](O)C[C@@H]12 [Example 10]	200
CC[C@H]1[C@@H](O)[C@@H]2[C@H](CC[C@]3(C)[C@@H]([C@H](C)CCCn4cc(C(=O)O)ccc4=O)CC[C@@H]23)[C@@]2(C)CC[C@@H](O)C[C@@H]12 [Example 17]	2500
CC[C@H]1[C@@H](O)[C@@H]2[C@H](CC[C@]3(C)[C@@H]([C@H](C)CCc4cccc(C(=O)O)c4)CC[C@@H]23)[C@@]2(C)CC[C@@H](O)C[C@@H]12 [Example 19]	370

same assay, conditions: HEK-293T; read-out: FXR cell activity Efficacy

Structure (SMILES)	Emax [%]
CC[C@H]1[C@@H](O)[C@@H]2[C@H](CC[C@]3(C)[C@@H]([C@H](C)CCOc4cccc(C(=O)O)c4)CC[C@@H]23)[C@@]2(C)CC[C@@H](O)C[C@@H]12 [Example 7]	140
CC[C@H]1[C@@H](O)[C@@H]2[C@H](CC[C@]3(C)[C@@H]([C@H](C)CCOc4cc(C(=O)O)ccn4)CC[C@@H]23)[C@@]2(C)CC[C@@H](O)C[C@@H]12 [Example 9]	130
CC[C@H]1[C@@H](O)[C@@H]2[C@H](CC[C@]3(C)[C@@H]([C@H](C)CCOc4ccc(C(=O)O)nc4)CC[C@@H]23)[C@@]2(C)CC[C@@H](O)C[C@@H]12 [Example 10]	138
CC[C@H]1[C@@H](O)[C@@H]2[C@H](CC[C@]3(C)[C@@H]([C@H](C)CCCn4cc(C(=O)O)ccc4=O)CC[C@@H]23)[C@@]2(C)CC[C@@H](O)C[C@@H]12 [Example 17]	131
CC[C@H]1[C@@H](O)[C@@H]2[C@H](CC[C@]3(C)[C@@H]([C@H](C)CCc4cccc(C(=O)O)c4)CC[C@@H]23)[C@@]2(C)CC[C@@H](O)C[C@@H]12 [Example 19]	143

Source: patent US11667667B2, “Steroid derivative FXR agonist” (Chia Tai Tianqing Pharmaceutical Group Co., Ltd., priority 2016, dated 2023)
